Data set [1] relates to retinal ganglion cells. Briefly: Toxicity of other drugs to retinal ganglion cells and prevention by MK801 (FIG. 8). Type of data set: cell-based. Here is the method: FIG. 8 is a bar graph showing prevention of drug toxicity by the protective agent, MK801. […] Retinal ganglion cells were incubated for 24 hours with either drug alone (5-fluorouracil (5-FU), Defororixamine, and Tamoxifenor drug +MK801, followed by measurement of cell viability.
As discussed above, other drugs are known to cause optic neuropathy (see Table 13). However, the mechanism of drug toxicity has not been defined. Experiments were carried out to determine whether NMDA antagonists prevented retinal cell damage induced by such drugs. […] The cytotoxic effect of these drugs on retinal ganglion cells was prevented by the NMDA antagonist, MK801.

Data set [2] relates to retinal ganglion cells. Briefly: Attenuation of ethambutol toxicity by NMDA antagonists and a calcium channel blocker (retinal ganglion cell viability, FIG. 3). As to conditions: for retinal ganglion cell viability, drug alone: no ethambutol; for protection of retinal ganglion cells from ethambutol-mediated toxicity: 24 hours.
The test system of data set [3] is M. tuberculosis and M. avium isolates. Kind of data set: Minimal inhibitory concentration of ethambutol by radiometric Bactec technique with and without protective agents. The class given is cell-based, Mycobacterium tuberculosis; Mycobacterium avium.
Data set [4] deals with all other cells of the retinal dissociations. Kind of data set: Viability of the other cell types in dissociated retinal preparations exposed to ethambutol. Type of data set: cell-based, rat. To be noted: increasing concentrations, 24 hours. The procedure:
FIG. 1 is a line graph showing dose-dependent toxicity of ethambutol to retinal ganglion cells in vitro. Dissociated rodent retinal ganglion cells were incubated with increasing concentrations of ethambutol for 24 hours. The ability of cells to take up and cleave fluorescein diacetate was used as an index of their viability and lack of injury. […] Retinal ganglion cells (open circles) and all other cells (open squares) were scored separately for viability. […] (*) indicates statistical difference by an analysis of variance (ANOVA) followed by Scheffe multiple comparison of means, P<0.01. Values were normalized to control (n=1) and represent the means ± standard deviations of four experiments; at least 150 retinal ganglion cells scored for control values in each experiment.
Initial experiments were carried out in vitro. Freshly dissociated rat retinal preparations were exposed to increasing concentrations of ethambutol. […] Retinal cells were incubated in the presence of increasing concentrations of ethambutol, and scored for viability at 24 hours. Retinal ganglion cells were identified by the presence of DiI fluorescence.
Viability was assayed by uptake and cleavage of a second fluorescent dye, fluorescein diacetate. Ethambutol toxicity was detected only in retinal ganglion cells (FIG. 1, open circles). […]

The subject of data set [5] is retinal ganglion cells. Briefly: Fura-2 intracellular calcium in retinal ganglion cells (response to NMDA and ethambutol). The class given is cell-based, rat. To be noted: for effect on intracellular calcium, ethambutol alone: 10 μM ethambutol; for greater rise in intracellular calcium with ethambutol + NMDA than with NMDA alone: 10 μM ethambutol + 100 μM NMDA. The procedure: FIG. 6 is a bar graph showing the effect of ethambutol and Zn^2+ on the cellular response to NMDA. Dissociated retinal ganglion cells were labeled with the calcium sensitive dye, fura-2. 100 μM NMDA were then applied by puffer, and the peak intracellular calcium concentration measured (peak response occurred between 10 and 70 seconds after NMDA exposure for all cells). The indicated drugs were then applied in the following concentrations: 10 μM ethambutol (Eth) or 100 μM Zn^2+. Values are means ± standard deviations. Ethambutol + NMDA led to a 20% greater rise in intracellular calcium then NMDA alone. (*) indicates statistical difference by an analysis of variance (ANOVA) followed Scheffe multiple comparison of means, P<0.01. Ethambutol, NMDA, and Zn^2+ simultaneously led to the same rise seen with NMDA alone. Ethambutol alone or in combination with Zn^2+ had no effect under these conditions.
(§1) Neuronal intracellular free Ca^2+ concentration ([Ca^2+ ]i) was analyzed with fura-2 acetoxymethyl ester (fura 2-AM; Molecular Probes) following procedures known in the art. DiI labeled retinal ganglion cells were subsequently labeled with fura-2. Agonists (NMDA-glycine, glutamate, etc.) were applied by pneumatic pipettes (aperture […], 3-6 psi) placed 10-20 μm from the cells of interest. Data were analyzed via the Metamorph software package (Image 1).
There are several possible explanations for the finding that ethambutol toxicity to retinal ganglion cells is mediated through the NMDA receptor. A primary effect of NMDA is its known ability to increase intracellular calcium in neurons; this effect was monitored via the fluorescent dye, fura 2. Accordingly, dissociated retinal ganglion cells were labeled with fura-2. Ethambutol in concentrations from 1 nM to 1 mM was puffed onto retinal ganglion cells for periods of up to five minutes. No change was detected in 25 of 25 cells examined. As a control, 100 μM NMDA was subsequently puffed onto these cells, and in 23 of 25 cells the intracellular calcium rose to […] or higher.
Since a rise in intracellular calcium is one of the neuron's first responses to exogenously applied glutamate or NMDA, the following experiment was performed to detect changes in intracellular calcium. Dissociated retinal ganglion cells were labeled with the calcium sensitive dye, fura 2. Fura 2 allows for measurement of cytosolic calcium concentrations.
100 μM NMDA was applied to individual retinal ganglion cells, and the rise in intracellular calcium measured. The cells were then allowed to recover, and the intracellular calcium returned to baseline. 10 μM ethambutol and 100 μM NMDA were then simultaneously applied to the same cell (FIG. 6, second bar).
As a second experiment, 100 μM Zn^2+ chloride was added to the ethambutol/NMDA puffer. In the presence of 100 μM Zn^2+, 100 μM NMDA plus 10 μM ethambutol led to a rise in intracellular calcium that was indistinguishable from NMDA alone (FIG. 6, third bar). […] Accordingly, exogenous Zn^2+ reduced the NMDA/ethambutol response to the baseline NMDA response.
A general note: Calcium assays in cells follow changes in intracellular calcium, usually with a dye or a luminescent sensor.

Another data set deals with retinal cultures. Briefly: Endogenous glutamate in retinal cultures by HPLC. The class given is cell-based, rat. As to conditions: overnight incubation with ethambutol. Here is the method: The role of endogenous glutamate in ethambutol toxicity was evaluated. Endogenous glutamate in retinal cultures was 26±2 μM (mean ±standard deviation, n=12) (as measured by high pressure liquid chromatography).
This level of endogenous glutamate was not affected by overnight incubation with ethambutol. […] Nevertheless, experiments were carried out to determine whether endogenous glutamate was required for the expression of ethambutol toxicity in these preparations. […] The endogenous glutamate was specifically degraded by the addition of the enzyme glutamate-pyruvate transaminase (GPT) in the presence of the cosubstrate pyruvate.

In data set [6] the test system is retinal ganglion cells. To be noted: 10 μM ethambutol, within 24 hours.
Data set [7] relates to retinal ganglion cells. Kind of data set: cells. As to conditions: Rattus norvegicus, 24 h, read-out: half maximal effect of ethambutol toxicity to retinal ganglion cells, 24 hours incubation; viability by fluorescein diacetate.
Another data set is described as follows: in vitro. As to conditions: rat, retinal ganglion cells.
For data set [8] the following is noted: cited from earlier work.
For data set [9], the system named is retinal ganglion cell layer. Kind of data set: In vivo toxicity of ethambutol to the retina. To be noted: 100 mg/kg daily, orally, 30 days.
The test system of data set [10] is NMDA-evoked [Ca2+]i responses. Kind of data set: Digital calcium imaging of NMDA-evoked [Ca2+]i responses. The class given is cell-based. As to conditions: 6 μM memantine, 200 μM NMDA. Here is the method:
It has now been discovered that memantine inhibits NMDA-evoked [Ca^2+ ]i responses. […] In fact, [Ca^2+ ]i rose only to levels associated with a low degree of NMDA receptor stimulation in the presence of memantine.
as §1

A further data set has as its target NMDA receptor. As to conditions: at the resting potential; cited from earlier work.

“Also recorded” adds a separate entry of the source. Like-named read-outs stand apart in the source and are kept apart here. Some results are limits rather than exact numbers.

Take `O=c1[nH]cc(F)c(=O)[nH]1` [5-FU, 5-fluorouracil]: the “toxicity to retinal ganglion cells” value in the data set with retinal ganglion cells [1] is on record as “toxic to retinal ganglion cells”.

`NC(CCCP(=O)(O)O)C(=O)O` (stereo not drawn) [APV, 2-amino-5-phosphonovalerate]: the “retinal ganglion cell viability, drug alone” value with retinal ganglion cells [2] (100 μM drug) is reported as “did not affect cell viability”.

Regarding `N#Cc1cc2nc(O)c(O)nc2cc1[N+](=O)[O-]` [CNQX, 6-cyano-7-nitroquinoxaline-2,3-dione], the “protection of retinal ganglion cells from ethambutol-mediated toxicity” value (shortened to “protection of retinal ganglion cells”) in the data set with retinal ganglion cells [2] (100 μM drug with 10 μM ethambutol) is recorded as “ineffective at preventing ethambutol-mediated cell death”. Also, the “retinal ganglion cell viability, drug alone” value in the data set with retinal ganglion cells [2] (100 μM drug) was “did not affect cell viability”.

Turning to `CC(=O)N(O)CCCCCNC(=O)CCC(=O)N(O)CCCCCNC(=O)CCC(=O)N(O)CCCCCN` [Defororixamine, deferoxamine], in the data set on retinal ganglion cells [1], the “toxicity to retinal ganglion cells” value was “toxic to retinal ganglion cells”.

On to `C[C@]12N[C@H](Cc3ccccc31)c1ccccc12` [MK-801, dizocilpine], for which the “effect on the cytotoxic effect of 5-FU, Defororixamine and Tamoxifen on retinal ganglion cells” value in the data set with retinal ganglion cells [1] (drug + MK801, 24 hours) is “prevented”. Moreover, in data set [3] (12 μM agent), the “effect on the concentration of ethambutol necessary to kill mycobacterial strains” value (shortened to “effect on the concentration”) is on record as “had no effect”. In addition, the “protection of retinal ganglion cells” value in the data set with retinal ganglion cells [2] (12 μM drug with 10 μM ethambutol) is “do protect retinal ganglion cells from ethambutol induced injury; also recorded: protect retinal ganglion cells from ethambutol-mediated toxicity”. Moreover, the “retinal ganglion cell viability, drug alone” value in the data set with retinal ganglion cells [2] (12 μM drug) was “did not affect cell viability”.

Regarding `CC/C(=C(\c1ccccc1)c1ccc(OCCN(C)C)cc1)c1ccccc1` [Tamoxifen], the “toxicity to retinal ganglion cells” value in the data set on retinal ganglion cells [1] (drug alone, 24 hours) is “toxic to retinal ganglion cells”.

On to `CC[C@@H](CO)NCCN[C@@H](CC)CO` [ethambutol], for which the “ethambutol toxicity in other cell types” value in data set [4] was “No ethambutol toxicity”. For the same compound, the “change in intracellular calcium, ethambutol alone” value in the data set with retinal ganglion cells [5] (1 nM to 1 mM puffed for up to five minutes, 25 of 25 cells) is on record as “No change”. Further, in the data set on retinal ganglion cells [5], the “effect on intracellular calcium, ethambutol alone” value was “had no effect on intracellular calcium” and the “greater rise in intracellular calcium with ethambutol + NMDA than with NMDA alone” value is recorded as no less than 20%. In the data set with retinal ganglion cells [5] (listed as Ethambutol), the “greater rise in intracellular calcium with ethambutol + NMDA than with NMDA alone” value is 20% and the “effect on intracellular calcium, ethambutol alone” value is reported as “had no effect”. Also, in the data set on retinal cultures, the “effect on the level of endogenous glutamate” value was “not affected”. The “retinal ganglion cells that died compared to sibling control cultures” value in the data set with retinal ganglion cells [6] is “Approximately half”. Also, the EC50 with retinal ganglion cells [7] was determined as 10 µM. This compound displayed a cytotoxicity at 24 h, 10 µM in “in vitro” of no less than 50%. Moreover, in data set [8] (patients taking ethambutol), the “patients developing optic neuropathy” value is “up to 15%” and the “patients with permanent visual loss” value was “up to 3%”. The concentration in [8] (read-out: concentration in the cerebrospinal fluid, patients taking the drug orally) was 10 µM. Also, in data set [9], the “loss of cells in the retinal ganglion cell layer versus control” value amounted to 18% and the other ocular pathology entry is on record as “no other ocular pathology was detected”.

For orientation: Ki means the equilibrium dissociation constant of an inhibitor or competing ligand from its target. For the compound `CC12CC3CC(C)(C1)CC(N)(C3)C2.Cl` [memantine, 1-amino-3,5-dimethyladamantane hydrochloride], the “effect on excessive influx of calcium elicited by NMDA” value in data set [10] is listed as “largely prevent”. The “effect on the concentration” value in data set [3] (12 μM agent) was “had no effect”. For the same compound, the Ki at NMDA receptor is 1 to 2 µM. Besides, the “protection of retinal ganglion cells” value in the data set with retinal ganglion cells [2] (12 μM drug with 10 μM ethambutol, hydrochloride) is reported as “do protect retinal ganglion cells from ethambutol induced injury; also recorded: protect retinal ganglion cells from ethambutol-mediated toxicity”. Further, in the data set on retinal ganglion cells [2] (12 μM drug), the “retinal ganglion cell viability, drug alone” value is listed as “did not affect cell viability”.

Turning to `COCCOC(=O)C1=C(C)NC(C)=C(C(=O)OC(C)C)C1c1cccc([N+](=O)[O-])c1` (stereo not drawn) [nimodipine], in data set [3] (100 nM agent), the “effect on the concentration” value is recorded as “had no effect”. Also, the “protection of retinal ganglion cells” value in the data set on retinal ganglion cells [2] (100 nM drug with 10 μM ethambutol) is “do protect retinal ganglion cells from ethambutol induced injury; also recorded: protect retinal ganglion cells from ethambutol-mediated toxicity”. In addition, in the data set on retinal ganglion cells [2] (100 nM drug), the “retinal ganglion cell viability, drug alone” value is “did not affect cell viability”.
